The record followed here is patent US20110098269A1, “Substituted Pyridazinone Derivatives as Histamine-3 (H3) Receptor Ligands” (Cephalon, Inc., priority 2008, published 2011).

In general, Ki refers to the equilibrium dissociation constant of an inhibitor or competing ligand from its target.

Counter-ions that a name gives are not always drawn.

Assay [1] has as its target T1, rat histamine H3 receptor (Rattus norvegicus, UniProt Q9QYN8).
T1 construct: encoding the entire 445-amino-acid rat histamine H3 receptor; expressed in transfected cells
Put plainly: Rat H3 radioligand binding ([3H]-N-alpha-methylhistamine, CHO-A3 cell membranes). The settings on record: Rat H3 binding constant, class symbols; read-out: rH3 Ki. An excerpt: Cell line development and membrane preparation. The rat H3 receptor cDNA was PCR amplified from reverse-transcribed RNA pooled from rat thalamus, hypothalamus, striatum and prefrontal cortex with a sequence corresponding to by #338-1672 of Genbank file #NM_053506, encoding the entire 445-amino-acid rat histamine H3 receptor. This was engineered into the pIRES-neo3 mammalian expression vector, which was stably transfected into the CHO-A3 cell line (Euroscreen, Belgium), followed by clonal selection by limiting dilution. Cells were harvested and cell pellets were frozen (−80° C.). Cell pellets were resuspended in 5 mM Tris-HCl, pH 7.5 with 5 nM EDTA and a cocktail of protease inhibitors (Complete Protease Inhibitor Tablets, Roche Diagnostics). Cells were disrupted using a polytron cell homogenizer and the suspension was centrifuged at 1000×g for 10 minutes at 4° C. The pellet was discarded and the supernatant centrifuged at 40,000×g for 30 min at 4° C. This membrane pellet was washed in membrane buffer containing 50 mM Tris-HCl, pH 7.5 with 0.6 mM EDTA, 5 mM MgCl2 and protease inhibitors, recentrifuged as above and the final pellet resuspended in membrane buffer plus 250 mM sucrose and frozen at −80° C.
(§1) Radioligand Binding. Membranes were resuspended in 50 mM Tris HCl (pH 7.4), 5 mM MgCl2, 0.1% BSA. The membrane suspensions (10 μg protein per well) were incubated in a 96 well microtiter plate with [^3H]-N-alpha-methylhistamine (approximately 1 nM final concentration), test compounds at various concentrations (0.01 nM-30 μM) and scintillation proximity beads (Perkin Elmer, FlashBlueGPCR Scintillating Beads) in a final volume of 80 μl for 4 hours at room temperature, protected from light. Non-specific binding was determined in the presence of 10 μM clobenpropit. Radioligand bound to receptor, and therefore in proximity to the scintillation beads, was measured using a MicroBeta scintillation counter.

The target of assay [2] is T2, human H3 receptor (Homo sapiens, UniProt Q9Y5N1).
T2 construct: expressed in transfected cells
Kind of assay: Human H3 radioligand binding ([3H]-N-alpha-methylhistamine, CHO cell membranes). The settings on record: Human H3 binding constant, class symbols; read-out: hH3 Ki. Here is the method: Methods: CHO cells stably expressing the human H3 receptor (GenBank: NM_007232) were harvested and cell pellets were frozen (−80° C.). Cell pellets were resuspended in 5 mM Tris-HCl, pH 7.5 with 5 nM EDTA and a cocktail of protease inhibitors (Complete Protease Inhibitor Tablets, Roche Diagnostics). Cells were disrupted using a polytron cell homogenizer and the suspension was centrifuged at 1000×g for 10 minutes at 4° C. The pellet was discarded and the supernatant centrifuged at 40,000×g for 30 min at 4° C. This membrane pellet was washed in membrane buffer containing 50 mM Tris-HCl, pH 7.5 with 0.6 mM EDTA, 5 mM MgCl2 and protease inhibitors, recentrifuged as above and the final pellet resuspended in membrane buffer plus 250 mM sucrose and frozen at −80° C.
as §1

T1 sequence (Q9QYN8 whole entry): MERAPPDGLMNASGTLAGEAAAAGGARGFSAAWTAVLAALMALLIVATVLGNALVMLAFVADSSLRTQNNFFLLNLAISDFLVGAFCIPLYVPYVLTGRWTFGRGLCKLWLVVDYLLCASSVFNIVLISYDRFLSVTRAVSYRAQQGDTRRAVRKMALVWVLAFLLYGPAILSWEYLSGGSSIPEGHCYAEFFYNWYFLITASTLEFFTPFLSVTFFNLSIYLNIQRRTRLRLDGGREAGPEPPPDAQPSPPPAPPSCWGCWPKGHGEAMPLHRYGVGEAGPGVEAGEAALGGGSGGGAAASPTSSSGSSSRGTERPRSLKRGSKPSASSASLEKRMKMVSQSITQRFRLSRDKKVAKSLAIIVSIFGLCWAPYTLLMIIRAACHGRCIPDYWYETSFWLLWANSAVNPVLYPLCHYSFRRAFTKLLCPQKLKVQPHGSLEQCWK
T2 sequence (Q9Y5N1 whole entry): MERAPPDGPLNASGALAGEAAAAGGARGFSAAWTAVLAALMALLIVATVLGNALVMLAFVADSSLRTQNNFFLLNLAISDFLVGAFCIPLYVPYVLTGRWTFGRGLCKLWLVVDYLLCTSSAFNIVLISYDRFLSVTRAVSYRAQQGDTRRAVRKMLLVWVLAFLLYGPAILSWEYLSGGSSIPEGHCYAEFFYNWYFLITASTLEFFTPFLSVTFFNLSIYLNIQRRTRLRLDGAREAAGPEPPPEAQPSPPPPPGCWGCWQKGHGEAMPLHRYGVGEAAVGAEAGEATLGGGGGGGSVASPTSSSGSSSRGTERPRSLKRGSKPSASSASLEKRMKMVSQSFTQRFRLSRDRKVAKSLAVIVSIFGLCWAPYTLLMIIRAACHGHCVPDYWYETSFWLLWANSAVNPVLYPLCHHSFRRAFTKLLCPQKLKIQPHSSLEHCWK

On to `Cn1nc(-c2ccc(CCN3CCC3)cc2)ccc1=O` [Example 60], for which the Ki in assay [1] and in assay [2] was 100 to 1000 nM throughout.
Regarding `O=C1NN=C(c2ccc3c(c2)CCN(C2CCC2)CC3)C2CC12` (stereo not shown) [Example 40, 5-(3-Cyclobutyl-2,3,4,5-tetrahydro-1H-benzo[d]azepin-7-yl)-3,4-diaza-bicyclo[4.1.0]hept-4-en-2-one], the inhibitory constant (Ki) in assay [1] was 100 to 1000 nM; in assay [2] it was under 100 nM.
On to `COCn1ncc(Oc2ccc3c(c2)CCN(C2CCCC2)CC3)cc1=O` [Example 38, 5-(3-Cyclopentyl-2,3,4,5-tetrahydro-1H-benzo[d]azepin-7-yloxy)-2-methoxymethyl-2H-pyridazin-3-one], for which the inhibition constant Ki in assay [1] was 100 to 1000 nM; in assay [2] it was under 100 nM.
As for `Cn1ncc(Oc2ccc3c(c2)CCN(C2CCC2)CC3)cc1=O` [Example 35, 5-(3-Cyclobutyl-2,3,4,5-tetrahydro-1H-benzo[d]azepin-7-yloxy)-2-methyl-2H-pyridazin-3-one], the inhibitory constant (Ki) in assay [1] was 100 to 1000 nM; in assay [2], under 100 nM.
In the same order, the values of `CCN(CCc1ccc(-c2ccc(=O)n(C)n2)cc1)C1CCC1` [Example 62] are 100 to 1000 nM and 100 to 1000 nM.
For `C[C@@H]1CCCN1CCc1ccc(-c2ccc(=O)n(Cc3ccccc3)n2)cc1` [Example 53], in that order: under 100 nM and under 100 nM.
For `C[C@@H]1CCCN1CCc1ccc(-c2ccc(=O)n(-c3ccccn3)n2)cc1` [Example 69], in that order: 100 to 1000 nM and under 100 nM.
Consider `CC(C)N(C)CCc1ccc(-c2ccc(=O)n(C)n2)cc1` [Example 54], for which the Ki in assay [1] and in assay [2] was 100 to 1000 nM throughout.
With `C[C@@H]1CCCN1CCc1ccc(-c2ccc(=O)n(C)n2)cc1` [Example 63], the Ki in assay [1] and in assay [2] was under 100 nM in each case.
On to `CS(=O)(=O)c1ccc(-n2nc(-c3ccc4c(c3)CCNCC4)ccc2=O)cc1` [Example 24, 2-(4-Methanesulfonyl-phenyl)-6-(2,3,4,5-tetrahydro-1H-benzo[d]azepin-7-yl)-2H-pyridazin-3-one], for which, in assay [2], the Ki is over 1000 nM.
As to `CCNCCc1ccc(-c2ccc(=O)n(C)n2)cc1` [Example 57], the Ki in assay [1] and in assay [2] was 100 to 1000 nM throughout.
With `CN(CCc1ccc(-c2ccc(=O)n(C)n2)cc1)C1CCC1` [Example 61], the Ki was 100 to 1000 nM in assay [1] and under 100 nM in assay [2].
In the same order, the values of `Cn1ncc(Oc2ccc3c(c2)CCN(C2CCC2)CC3)c(Br)c1=O` [Example 31, 4-Bromo-5-(3-cyclobutyl-2,3,4,5-tetrahydro-1H-benzo[d]azepin-7-yloxy)-2-methyl-2H-pyridazin-3-one] are under 100 nM and under 100 nM.
For `O=C1NN=C(c2ccc3c(c2)CCNCC3)C2CCCC12` (stereo not shown) [Example 41, 4-(2,3,4,5-Tetrahydro-1H-benzo[d]azepin-7-yl)-2,4-a,5,6,7,7a-hexahydro-cyclopenta[d]pyridazin-1-one], in that order: 100 to 1000 nM and 100 to 1000 nM.
In the same order, the values of `CC(C)n1nc(-c2ccc3c(c2)CCNCC3)ccc1=O` [Example 5, 2-Isopropyl-6-(2,3,4,5-tetrahydro-1H-benzo[d]azepin-7-yl)-2H-pyridazin-3-one] are 100 to 1000 nM and 100 to 1000 nM.
For the compound `CC(=O)N1CCN(CCc2ccc(-c3ccc(=O)n(C)n3)cc2)CC1` [Example 58], the Ki in assay [1] and in assay [2] was 100 to 1000 nM each time.
Regarding `Cn1ncc(Oc2ccc3c(c2)CCN(C2CCC2)CC3)c(Cl)c1=O` [Example 30, 4-Chloro-5-(3-cyclobutyl-2,3,4,5-tetrahydro-1H-benzo[d]azepin-7-yloxy)-2-methyl-2H-pyridazin-3-one], the Ki in assay [1] and in assay [2] was under 100 nM each time.
For `Cn1nc(-c2ccc3c(c2)CCN(C2CCCC2)CC3)ccc1=O` [Example 23, 6-(3-Cyclopentyl-2,3,4,5-tetrahydro-1H-benzo[d]azepin-7-yl)-2-methyl-2H-pyridazin-3-one. HCl], the inhibition constant Ki in assay [1] was 100 to 1000 nM; in assay [2] it was under 100 nM.
In the same order, the values of `Cn1nc(-c2ccc(CCN3CCCCC3)cc2)ccc1=O` [Example 64] are 100 to 1000 nM and 100 to 1000 nM.
In the same order, the values of `Cn1nc(-c2ccc(C(=O)N3CCC[C@H]3CN3CCCC3)cc2)ccc1=O` [Example 45, 2-Methyl-6-[4-((S)-2-pyrrolidin-1-ylmethyl-pyrrolidine-1-carbonyl)-phenyl]-2H-pyridazin-3-one] are under 100 nM and under 100 nM.
Turning to `CN(CCc1ccc(-c2ccc(=O)n(C)n2)cc1)C1CCCCC1` [Example 55], the inhibitory constant (Ki) in assay [1] and in assay [2] was 100 to 1000 nM throughout.
For `C[C@@H]1CCCN1CCc1ccc(-c2ccc(=O)n(-c3ccc(F)cc3)n2)cc1` [Example 67], the inhibition constant Ki in assay [1] and in assay [2] was under 100 nM throughout.
For the compound `C[C@@H]1CCCN1CCc1ccc(-c2ccc(=O)n(-c3ccc(Cl)cc3)n2)cc1` [Example 52], the Ki in assay [1] and in assay [2] was under 100 nM each time.
As to `O=c1c(Cl)c(Oc2ccc3c(c2)CCN(C2CCC2)CC3)cnn1CC(F)(F)F` [Example 34, 4-Chloro-5-(3-cyclobutyl-2,3,4,5-tetrahydro-1H-benzo[d]azepin-7-yloxy)-2-(2,2,2-trifluoro-ethyl)-2H-pyridazin-3-one], the Ki is 100 to 1000 nM in assay [1] and under 100 nM in assay [2].
In the same order, the values of `C[C@@H]1CCCN1CCc1ccc(-c2ccc(=O)n(-c3ccccc3)n2)cc1` [Example 66] are under 100 nM and under 100 nM.
Take `Cn1nc(-c2ccc(C(=O)N3CCN4CCC[C@H]4C3)cc2)ccc1=O` [Example 48, 6-[4-((S)-Hexahydro-pyrrolo[1,2-a]pyrazine-2-carbonyl)-phenyl]-2-methyl-2H-pyridazin-3-one]: the Ki in assay [1] and in assay [2] was 100 to 1000 nM each time.
On to `Cn1ncc(Oc2ccc3c(c2)CCN(C2CCCC2)CC3)c(Br)c1=O` [Example 32, 4-Bromo-5-(3-cyclopentyl-2,3,4,5-tetrahydro-1H-benzo[d]azepin-7-yloxy)-2-methyl-2H-pyridazin-3-one], for which the inhibition constant (Ki) in assay [1] and in assay [2] was under 100 nM throughout.
As to `CC(C)N1CCc2ccc(-c3ccc(=O)n(C)n3)cc2CC1` [Example 22, 6-(3-Isopropyl-2,3,4,5-tetrahydro-1H-benzo[d]azepin-7-yl)-2-methyl-2H-pyridazin-3-one. HCl], the Ki in assay [1] and in assay [2] was 100 to 1000 nM in each case.
As to `Cn1ncc(Oc2ccc3c(c2)CCN(C2CCCC2)CC3)cc1=O` [Example 36, 5-(3-Cyclopentyl-2,3,4,5-tetrahydro-1H-benzo[d]azepin-7-yloxy)-3-methyl-2H-pyridazin-3-one], the Ki is 100 to 1000 nM in assay [1] and under 100 nM in assay [2].
For `O=c1ccc(-c2ccc(CCN3CCOCC3)cc2)nn1-c1ccccc1` [Example 68], in that order: over 1000 nM and over 1000 nM.
In the same order, the values of `COCn1ncc(Oc2ccc3c(c2)CCN(C2CCC2)CC3)cc1=O` [Example 37, 5-(3-Cyclobutyl-2,3,4,5-tetrahydro-1H-benzo[d]azepin-7-yloxy)-2-methoxymethyl-2H-pyridazin-3-one] are 100 to 1000 nM and under 100 nM.
